Source: article PMC9294993 (ACS chemical biology, 2022)

Molecular target: KfoC (Escherichia coli, UniProt Q8L0V4)
Test: preparative synthesis, HPLC
Type: biochemical
Conditions: acceptor elongated to CS 7-mer

Sequence of KfoC (Q8L0V4 whole entry): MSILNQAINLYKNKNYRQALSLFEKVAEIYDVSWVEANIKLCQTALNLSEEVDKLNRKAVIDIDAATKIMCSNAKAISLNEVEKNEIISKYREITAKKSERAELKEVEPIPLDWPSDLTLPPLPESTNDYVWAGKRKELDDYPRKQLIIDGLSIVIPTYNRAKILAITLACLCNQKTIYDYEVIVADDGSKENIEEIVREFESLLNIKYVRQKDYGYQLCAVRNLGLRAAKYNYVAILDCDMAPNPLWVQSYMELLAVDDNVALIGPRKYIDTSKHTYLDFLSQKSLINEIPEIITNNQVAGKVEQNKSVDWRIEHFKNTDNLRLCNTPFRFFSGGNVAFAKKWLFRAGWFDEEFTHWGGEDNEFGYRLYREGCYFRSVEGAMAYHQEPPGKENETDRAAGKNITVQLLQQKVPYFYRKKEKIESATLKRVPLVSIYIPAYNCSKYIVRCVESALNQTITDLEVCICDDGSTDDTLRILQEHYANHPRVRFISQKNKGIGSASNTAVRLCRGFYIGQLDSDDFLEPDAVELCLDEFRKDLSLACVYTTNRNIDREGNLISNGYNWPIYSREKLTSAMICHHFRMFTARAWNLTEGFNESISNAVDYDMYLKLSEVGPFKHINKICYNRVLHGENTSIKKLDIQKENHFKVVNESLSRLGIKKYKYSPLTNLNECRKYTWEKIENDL

Compound: O=C(O)[C@H]1O[C@@H](Oc2ccc([N+](=O)[O-])cc2)[C@H](O)[C@@H](O)[C@@H]1O [4-nitrophenyl-β-D-glucuronide]
- preparative synthesis, HPLC: GlcA-pNP was first elongated to heptasaccharide CS 7-mer by KfoC
